Source: ChEMBL document CHEMBL1201862, “PubChem BioAssay data set” (2004)
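96-well plates; 48 h exposure; 5 concentrations. Endpoints by linear interpolation between flanking doses. Not reached: highest tested concentration assigned. Here, GI50 denotes the concentration required for 50% inhibition of growth.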 The source made the active and inactive calls. Rule as the data show it: active = GI50 up to about 1.1 µM and inactive = higher.

Assays:
Assay in all cases: NCI anticancer screen, dose series, 48 h
[1] = tested on: NCI-H460
[2] = tested on: SK-OV-3
[3] = tested on: OVCAR-8
[4] = tested on: MDA-N
[5] = tested on: NCI/ADR-RES
[6] = tested on: OVCAR-3
[7] = tested on: PC-3
[8] = tested on: 786-0
[9] = tested on: EKVX
[10] = tested on: SK-MEL-28
[11] = tested on: HOP-62
[12] = tested on: SF-539
[13] = tested on: BT-549
[14] = tested on: NCI-H23
[15] = tested on: COLO 205
[16] = tested on: SK-MEL-2
[17] = tested on: A549
[18] = tested on: UACC-257
[19] = tested on: K562
[20] = tested on: SNB-75

Measured: GI50

CO/N=C(/C(=O)OC)c1ccccc1COc1ccccc1C(F)(F)F
inactive: [1] 32.4 µM | [2] 16.6 µM | [3] > 100 µM | [4] 28.1 µM | [5] 29.3 µM | [6] 23.8 µM | [7] 33.5 µM | [8] 43.6 µM | [9] 11.3 µM | [10] 37.8 µM | [11] 63.8 µM | [12] 20.3 µM | [13] 79.1 µM | [14] 22.1 µM | [15] 25.4 µM | [16] 20.8 µM | [17] 21.7 µM | [18] 16 µM | [19] 19.6 µM

CN1CCC(O)(C(C)(C)C)CC1
inactive: [1] > 100 µM | [2] > 100 µM | [3] > 100 µM | [4] > 100 µM | [5] > 100 µM | [6] > 100 µM | [20] > 100 µM | [7] > 100 µM | [8] > 100 µM | [9] > 100 µM | [10] > 100 µM | [11] > 100 µM | [13] > 100 µM | [14] > 100 µM | [15] > 100 µM | [16] > 100 µM | [17] > 100 µM | [18] > 100 µM | [19] > 100 µM

CCOC(=O)C1=CN2C(=N[C@H]3CCCC[C@@H]32)NC1=O
inactive: [1] > 100 µM | [2] > 100 µM | [3] > 100 µM | [4] > 100 µM | [5] > 100 µM | [6] > 100 µM | [20] > 100 µM | [7] > 100 µM | [8] > 100 µM | [9] > 100 µM | [10] > 100 µM | [12] > 100 µM | [13] > 100 µM | [14] > 100 µM | [15] > 100 µM | [16] > 100 µM | [17] > 100 µM | [18] > 100 µM | [19] > 100 µM

O=C(O)C1(Nc2ccc(Cl)cc2)CCCC1
inactive: [1] > 100 µM | [2] > 100 µM | [3] > 100 µM | [4] > 100 µM | [5] > 100 µM | [6] > 100 µM | [20] > 100 µM | [7] > 100 µM | [8] > 100 µM | [9] > 100 µM | [10] > 100 µM | [11] > 100 µM | [13] > 100 µM | [14] > 100 µM | [15] 33 µM | [16] > 100 µM | [17] > 100 µM | [19] > 100 µM

C=C1C(NC)CCC23CC24CCC2(C)C(C(C)=O)C(O)CC2(C)C4CCC13 (stereo not drawn)
inactive: [1] > 100 µM | [2] 59.7 µM | [3] > 100 µM | [4] 63.7 µM | [5] > 100 µM | [6] > 100 µM | [20] 49.4 µM | [7] 78 µM | [8] 80.5 µM | [9] > 100 µM | [10] > 100 µM | [12] 59 µM | [13] 64.3 µM | [14] > 100 µM | [15] > 100 µM | [16] > 100 µM | [17] > 100 µM | [18] > 100 µM | [19] 71.3 µM

O=C(O)c1ccc(/N=C(\C(=N\c2ccc(C(=O)O)cc2)c2ccccc2)c2ccccc2)cc1
inactive: [1] > 100 µM | [2] > 100 µM | [3] > 100 µM | [4] > 100 µM | [5] > 100 µM | [6] > 100 µM | [20] > 100 µM | [7] > 100 µM | [8] > 100 µM | [9] > 100 µM | [10] > 100 µM | [11] > 100 µM | [13] 33.5 µM | [14] > 100 µM | [15] > 100 µM | [16] > 100 µM | [17] > 100 µM | [18] > 100 µM | [19] > 100 µM

O=C1c2cccc3cccc(c23)C(=O)N1CCCNOCCONCCCN1C(=O)c2cccc3cccc(c23)C1=O
inactive: [1] 59.4 µM | [2] > 100 µM | [3] 43.3 µM | [4] > 100 µM | [5] 12.7 µM | [6] 94 µM | [20] 42.6 µM | [7] 55.1 µM | [8] 33.5 µM | [9] > 100 µM | [10] > 100 µM | [11] 62.1 µM | [13] 73.3 µM | [14] 99.8 µM | [15] 83.8 µM | [16] > 100 µM | [17] 95.9 µM | [18] 67.6 µM | [19] 27 µM

COC1C=C(NCC2(CO)CCC2)N=C(N)N1 (stereo not drawn)
inactive: [1] > 100 µM | [2] > 100 µM | [3] > 100 µM | [4] > 100 µM | [5] > 100 µM | [6] > 100 µM | [20] > 100 µM | [7] > 100 µM | [8] > 100 µM | [9] > 100 µM | [10] > 100 µM | [11] > 100 µM | [13] > 100 µM | [14] 24.8 µM | [15] > 100 µM | [16] > 100 µM | [17] > 100 µM | [18] > 100 µM | [19] > 100 µM

NC(Cn1ccc(=O)c(O)c1)C(=O)O (stereo not drawn) [MIMOSINE]
inactive: [1] > 100 µM | [2] > 100 µM | [3] > 100 µM | [4] > 100 µM | [5] > 100 µM | [6] > 100 µM | [7] > 100 µM | [8] > 100 µM | [9] > 100 µM | [10] > 100 µM | [11] > 100 µM | [12] > 100 µM | [13] > 100 µM | [14] > 100 µM | [15] > 100 µM | [16] > 100 µM | [17] > 100 µM | [18] > 100 µM

O=C(O)[C@H]1CCCN1CP(=O)(O)CN1CCC[C@@H]1C(=O)O
inactive: [1] > 100 µM | [2] > 100 µM | [3] > 100 µM | [4] > 100 µM | [5] > 100 µM | [6] > 100 µM | [20] > 100 µM | [7] > 100 µM | [8] > 100 µM | [9] > 100 µM | [10] > 100 µM | [11] > 100 µM | [13] > 100 µM | [14] > 100 µM | [15] > 100 µM | [16] > 100 µM | [17] > 100 µM | [18] > 100 µM | [19] > 100 µM
